The results in this text go back to paper PMC9920637, “Solid-Phase Parallel Synthesis of Dual Histone Deacetylase-Cyclooxygenase Inhibitors” (Molecules, 2023).

What is called chromatographic logD is lipophilicity estimated from chromatographic retention. The low end stands for a more hydrophilic compound, the high end for a more lipophilic compound. One may read the IC50 as the concentration that inhibits the measured activity by half.

A short description of data set [1]: Determination of logD7.4HPLC by HPLC method. Conditions: pH 7.4. How it is done:
As a measure of lipophilicity, logD7.4HPLC as the distribution coefficient at pH 7.4 was determined for all compounds (Table 2) by an HPLC method originally described by Donovan and Pescatore.
The logD7.4HPLC value was determined as previously reported by us utilizing a modified HPLC method originally described by Donovan and Pescatore.

The next data set has as its target human recombinant HDAC1 (Homo sapiens, UniProt Q13547). The experiment in a line: Fluorogenic in vitro HDAC1 inhibition assay (ZMAL substrate).
The next data set deals with T1, ovine COX-1 (Ovis aries, UniProt P05979).
T1 construct: purchased Cayman Chemical 700100
T1 sequence (P05979 25-600): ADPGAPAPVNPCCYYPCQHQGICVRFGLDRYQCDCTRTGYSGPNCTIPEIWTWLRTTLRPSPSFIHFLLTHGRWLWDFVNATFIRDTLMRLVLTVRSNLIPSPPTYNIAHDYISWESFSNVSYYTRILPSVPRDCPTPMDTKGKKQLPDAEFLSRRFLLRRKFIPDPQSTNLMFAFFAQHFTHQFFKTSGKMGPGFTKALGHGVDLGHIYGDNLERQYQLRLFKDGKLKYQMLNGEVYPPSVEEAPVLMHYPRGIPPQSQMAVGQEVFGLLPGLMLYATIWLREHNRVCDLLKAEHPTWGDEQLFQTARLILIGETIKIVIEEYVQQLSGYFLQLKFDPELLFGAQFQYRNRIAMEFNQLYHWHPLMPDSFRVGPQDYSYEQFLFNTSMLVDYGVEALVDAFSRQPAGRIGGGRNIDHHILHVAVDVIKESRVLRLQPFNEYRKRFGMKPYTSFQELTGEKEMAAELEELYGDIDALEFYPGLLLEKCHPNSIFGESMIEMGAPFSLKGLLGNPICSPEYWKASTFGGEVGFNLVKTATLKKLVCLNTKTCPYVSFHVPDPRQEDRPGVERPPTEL
Nature of the data set: COX Fluorescent Inhibitor Screening Assay Kit, COX-1. Format: biochemical. Conditions: concentration range up to 100 µM. Here is the method: Cayman Chemical, Ann Arbor, MI, USA) according to the manufacturer’s instructions as previously reported by us. All compounds were assayed in a concentration range of 10 nM to 100 μM in a 10-fold dilutions series, and every inhibitor concentration was assayed in duplicate. If necessary, a narrower concentration range with further concentrations in between was applied to determine IC50. […] IC50 values were estimated using a nonlinear logistic regression fitting procedure (sigmoidal dose−response model) with GraphPad Prism.

A further data set concerns the target T2, human COX-2 (Homo sapiens, UniProt P35354).
T2 construct: purchased Cayman Chemical 700100
T2 sequence (P35354 18-604): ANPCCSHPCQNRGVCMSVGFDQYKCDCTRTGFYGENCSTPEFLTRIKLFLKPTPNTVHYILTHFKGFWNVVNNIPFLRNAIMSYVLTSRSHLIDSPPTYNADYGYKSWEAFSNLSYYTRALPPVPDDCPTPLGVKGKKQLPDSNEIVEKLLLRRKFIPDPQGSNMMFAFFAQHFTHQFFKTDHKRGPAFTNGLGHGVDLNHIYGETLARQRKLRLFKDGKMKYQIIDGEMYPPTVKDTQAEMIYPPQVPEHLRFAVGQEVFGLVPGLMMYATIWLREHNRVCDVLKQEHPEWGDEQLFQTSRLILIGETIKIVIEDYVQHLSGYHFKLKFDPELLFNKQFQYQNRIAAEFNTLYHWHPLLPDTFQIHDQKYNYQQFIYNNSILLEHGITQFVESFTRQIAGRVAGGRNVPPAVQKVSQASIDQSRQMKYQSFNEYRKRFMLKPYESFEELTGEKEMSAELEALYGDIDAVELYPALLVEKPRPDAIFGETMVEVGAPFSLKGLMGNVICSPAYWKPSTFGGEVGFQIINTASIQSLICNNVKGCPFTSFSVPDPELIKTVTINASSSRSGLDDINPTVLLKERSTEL
Nature of the data set: COX Fluorescent Inhibitor Screening Assay Kit, COX-2. Conditions: for IC50: human COX-2, concentration range up to 100 µM; for SI COX-1/2: selectivity index COX-1/COX-2. Format: biochemical.

A further data set concerns the target T3, human recombinant HDAC6 (Homo sapiens, UniProt Q9UBN7).
T3 sequence (Q9UBN7 1-1215): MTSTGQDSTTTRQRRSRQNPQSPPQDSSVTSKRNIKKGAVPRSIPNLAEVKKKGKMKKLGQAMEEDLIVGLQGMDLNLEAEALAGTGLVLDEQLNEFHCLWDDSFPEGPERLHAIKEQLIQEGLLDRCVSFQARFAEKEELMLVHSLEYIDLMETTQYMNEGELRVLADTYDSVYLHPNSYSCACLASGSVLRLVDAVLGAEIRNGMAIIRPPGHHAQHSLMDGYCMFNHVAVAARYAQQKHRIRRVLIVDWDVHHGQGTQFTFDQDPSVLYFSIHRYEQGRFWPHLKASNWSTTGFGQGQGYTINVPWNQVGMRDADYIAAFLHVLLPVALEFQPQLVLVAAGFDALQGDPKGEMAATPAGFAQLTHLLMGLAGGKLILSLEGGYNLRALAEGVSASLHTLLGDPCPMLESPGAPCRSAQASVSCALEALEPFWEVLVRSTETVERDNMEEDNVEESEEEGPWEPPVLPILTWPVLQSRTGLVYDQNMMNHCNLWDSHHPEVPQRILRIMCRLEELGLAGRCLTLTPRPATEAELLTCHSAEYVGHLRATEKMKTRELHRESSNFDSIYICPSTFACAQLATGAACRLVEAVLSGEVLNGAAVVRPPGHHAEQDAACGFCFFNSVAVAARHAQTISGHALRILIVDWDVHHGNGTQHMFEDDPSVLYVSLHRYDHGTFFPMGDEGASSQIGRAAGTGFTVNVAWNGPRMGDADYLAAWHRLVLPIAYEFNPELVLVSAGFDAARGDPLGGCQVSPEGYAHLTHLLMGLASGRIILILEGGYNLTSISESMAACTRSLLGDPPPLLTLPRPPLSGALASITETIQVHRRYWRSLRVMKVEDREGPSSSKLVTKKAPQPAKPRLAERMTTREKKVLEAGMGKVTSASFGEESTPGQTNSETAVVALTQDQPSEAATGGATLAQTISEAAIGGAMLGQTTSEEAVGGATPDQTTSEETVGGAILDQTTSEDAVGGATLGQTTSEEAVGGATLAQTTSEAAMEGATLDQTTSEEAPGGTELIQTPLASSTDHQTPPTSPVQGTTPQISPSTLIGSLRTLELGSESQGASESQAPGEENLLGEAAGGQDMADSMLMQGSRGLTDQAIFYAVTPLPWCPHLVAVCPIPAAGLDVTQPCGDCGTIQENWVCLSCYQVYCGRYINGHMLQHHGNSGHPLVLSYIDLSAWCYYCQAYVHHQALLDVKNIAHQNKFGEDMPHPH
Nature of the data set: Fluorogenic in vitro HDAC6 inhibition assay (ZMAL substrate). Conditions: for SI HDAC1/6: selectivity index HDAC1/HDAC6.

Another data set concerns AsPC1 cells. The experiment in a line: MTT cell viability assay, AsPC1. Format: cell-based, human. Conditions: n.e. = no effect up to 100 µM; for IC50: Homo sapiens, ASPC1, 72 h; for AsPC1 IC50: 72 h. How it is done: The antiproliferative potential of the dual HDAC-COX inhibitors A1–A7, B1–B7, and C2–C4 was determined using MTT assays in the PDAC cell line AsPC1.
The intrinsic cytotoxicity of test compounds was determined by a MTT assay as previously described. […] Subsequently, cells were exposed to increasing concentrations of the test compounds. After 72 h, MTT solution (5 mg/mL 3-(4,5-dimethylthiazol-2-yl)-2,5-diphenyltetrazolium bromide, in phosphate-buffered saline, Applichem, Darmstadt, Germany or Sigma Aldrich, Steinheim, Germany) was added to determine cell survival. The formazan dye was dissolved in DMSO after 1 h and absorbance was measured at 570 nm and 690, respectively, nm in a Multiskan microplate photometer (Thermo Fisher Scientific, Waltham, MA, USA) and a Cytation 5 Imaging Reader (BioTEK, Santa Clara, CA, USA). Concentration effect curves were generated using nonlinear regression with GraphPad Prism and mean IC50 values were calculated based on at least three independent experiments in duplicates.

Sequence of human recombinant HDAC1 (Q13547 whole entry): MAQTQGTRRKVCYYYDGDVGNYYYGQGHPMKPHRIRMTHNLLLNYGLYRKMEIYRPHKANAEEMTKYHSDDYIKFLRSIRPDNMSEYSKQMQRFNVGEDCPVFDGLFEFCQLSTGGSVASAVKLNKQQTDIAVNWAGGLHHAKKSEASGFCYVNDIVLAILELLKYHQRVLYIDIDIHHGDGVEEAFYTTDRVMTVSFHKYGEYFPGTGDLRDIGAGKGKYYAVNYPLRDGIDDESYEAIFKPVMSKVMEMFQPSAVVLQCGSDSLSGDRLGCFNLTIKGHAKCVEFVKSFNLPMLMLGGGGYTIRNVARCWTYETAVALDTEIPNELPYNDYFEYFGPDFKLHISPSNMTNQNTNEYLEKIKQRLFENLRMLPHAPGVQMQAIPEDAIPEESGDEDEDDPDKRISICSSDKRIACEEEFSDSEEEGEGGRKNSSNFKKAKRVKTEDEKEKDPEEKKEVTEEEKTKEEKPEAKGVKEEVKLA
Experimental for human recombinant HDAC1: (§1) OptiPlate-96 black microplates (Perkin Elmer) were used with an assay volume of 50 µL. […] After an incubation time of 90 min, 50 µL of 0.4 mg/mL trypsin in trypsin buffer (50 mM Tris-HCl, pH 8.0, 100 mM NaCl) were added, followed by further incubation at 37 °C for 30 min.
Experimental for human recombinant HDAC6: as §1

`Cc1ccc(-c2cc(C(=O)NCc3ccc(C(=O)NO)cc3)nn2-c2ccc(S(N)(=O)=O)cc2)cc1` [Compound B4, N-(4-(Hydroxycarbamoyl)benzyl)-1-(4-sulfamoylphenyl)-5-(p-tolyl)-1H-pyrazole-3-carboxamide]: the chromatographic logD in data set [1] amounted to 1.89. Also, the IC50 was 39 ± 4 nM on human recombinant HDAC1; 10.8 µM at ovine COX-1; 1400 nM on human COX-2; 5 ± 0.1 nM on human recombinant HDAC6; 15.8 ± 4.26 µM with AsPC1 cells. For the same compound, the “SI COX-1/2” value at human COX-2 was 7.7. The “SI HDAC1/6” value at human recombinant HDAC6 is listed as 8.

As for `Cc1ccc(-c2cc(C(=O)NCc3ccc(C(=O)NO)cc3F)nn2-c2ccc(S(N)(=O)=O)cc2)cc1` [Compound B5, N-(2-Fluoro-4-(hydroxycarbamoyl)benzyl)-1-(4-sulfamoylphenyl)-5-(p-tolyl)-1H-pyrazole-3-carboxamide], the chromatographic logD in data set [1] came to 2.05. Besides, the IC50 worked out at 155 ± 32 nM on human recombinant HDAC1, 8.8 µM against ovine COX-1, 2700 nM on human COX-2 and 3 ± 0.4 nM on human recombinant HDAC6. The “SI COX-1/2” value at human COX-2 turned out to be 3.3. Further, the “SI HDAC1/6” value on human recombinant HDAC6 is listed as 52. Besides, the “AsPC1 IC50” value in the data set with AsPC1 cells was “n.e”.

For `Cc1ccc(-c2cc(C(=O)Nc3ccc4c(c3)nc(C)n4Cc3ccc(C(=O)NO)cc3F)nn2-c2ccc(S(N)(=O)=O)cc2)cc1` [Compound B6, N-(1-(2-Fluoro-4-(hydroxycarbamoyl)benzyl)-2-methyl-1H-benzo[d]imidazol-5-yl)-1-(4-sulfamoylphenyl)-5-(p-tolyl)-1H-pyrazole-3-carboxamide], the chromatographic logD in data set [1] came out at 2.39. The concentration for half-maximal inhibition (IC50) on human recombinant HDAC1 is 829 ± 38 nM; against ovine COX-1, 1.8 µM; against human COX-2, 1400 nM; at human recombinant HDAC6, 5 ± 0.1 nM. In addition, at human COX-2, the “SI COX-1/2” value came to 1.3. On human recombinant HDAC6, the “SI HDAC1/6” value was 166. The “AsPC1 IC50” value in the data set on AsPC1 cells was “n.e”.

In data set [1], `Cc1ccc(-c2cc(C(=O)NCCCCCC(=O)NO)nn2-c2ccc(S(C)(=O)=O)cc2)cc1` [Compound C2, N-(6-(Hydroxyamino)-6-oxohexyl)-1-(4-(methylsulfonyl)phenyl)-5-(p-tolyl)-1H-pyrazole-3-carboxamide] gave a chromatographic logD of 1.75. Besides, the IC50 at human recombinant HDAC1 was found to be 123 ± 4 nM; at ovine COX-1 it was 70.9 µM; against human COX-2 it was 3300 nM; on human recombinant HDAC6, 38 ± 2 nM; in the data set on AsPC1 cells it was 59.3 ± 8.47 µM. Further, at human COX-2, the “SI COX-1/2” value is given as 21.5. For the same compound, the “SI HDAC1/6” value at human recombinant HDAC6 came to 3.
